{"source": "patent US9132084B2", "about": "“Methods for administration and formulations for the treatment of regional adipose tissue” (NEOTHETICS, INC., priority 2009, dated 2015)", "assay": "Plasma pharmacokinetics following a single intravenous and subcutaneous injection of a combination of formoterol and budesonide", "conditions": "for AUC(0-inf): AUCinf; for bioavailability: F (bioavailability); for concentration at 0.0333 hr: female 2-0623, 0.0333 hr; for concentration at 0.0833 hr: female 2-0623, 0.0833 hr; for concentration at 0.167 hr: female 2-0623, 0.167 hr; for concentration at 0.333 hr: female 2-0623, 0.333 hr; for concentration at 0.5 hr: female 2-0623, 0.500 hr; for concentration at 0.75 hr: female 2-0623, 0.750 hr; for concentration at 1 hr: female 2-0623, 1.00 hr; for concentration at 2 hr: female 2-0623, 2.00 hr; for concentration at 4 hr: female 2-0623, 4.00 hr; for concentration at 8 hr: female 2-0623, 8.00 hr", "description": "Formoterol fumarate dehydrate and budesonide were formulated in 2% PEG-400 in saline. 1 male and 1 female non-naive Gottingen minipigs (8 to 12 kg upon receipt per protocol) were utilized. The animals were housed individually.\nEach minipig received a single IV injection of the combined formoterol and budesonide formulation followed by testing of the SC doses. Each dose was separated by at least a 3-day washout period. The IV dose was administered by slow bolus (1 minute; 0.017 hr) into the marginal ear vein, whereas the first SC dose was administered as a bolus injection along the back (neck-region) where there was a longitudinal fat depot. The second SC dose was distributed in 5 separate proximal SC injections separated by approximately 2 cm. Blood samples (approximately 4 mL) were collected via the branchiocephalic plexus at pre-dose and at 2, 5, 10, 20, 30 and 45 minutes, and at 1, 2, 4, 8 and 24 hr post-dose. Blood samples were placed in tubes containing K2-EDTA as the anticoagulant. Samples were processed to plasma by centrifugation and stored frozen at approximately −70° C. (+/−15° C.) until shipment for analysis.\nPlasma samples were analyzed for formoterol and budesonide using a qualified liquid chromatography/mass spectrometry/mass mass spectrometry (LC/MS/MS) method. The lower limit of quantitation (LLOQ) was 1.00 pg/mL for formoterol and 25.0 pg/mL for budesonide.\nNon-compartmental pharmacokinetic parameters were calculated using WinNonlin 5.2 software, NCA model 202, IV infusion input for the IV data and NCA model 200, extravascular input for the SC data. Individual plasma concentrations for each animal were used in the calculation of pharmacokinetic parameters. Nominal collection times and doses were used in the calculations. The area under the plasma concentration-time curve (AUC) was calculated using linear trapezoidal approximation (linear/log interpolation). Concentration values below the assay limit of quantitation were set to zero for calculations. The maximum plasma concentration (Cmax) and the time of its occurrence (Tmax) were verified by inspection. The half-life (t1/2) values were calculated using the last 3 plasma concentrations with nonzero values, if data permitted.", "key": {"[1]": {"conditions": "female, Gottingen, minipig, in vivo, formoterol 0.4 μg/kg SC1 single site, combination, female 2-0623"}, "[2]": {"conditions": "female, Gottingen, minipig, in vivo, formoterol 0.4 μg/kg SC5 (5 sites), combination, female 2-0623"}, "[3]": {"conditions": "female, Gottingen, minipig, in vivo, Plasma concentration of formoterol, SC1 0.4 μg/kg, combination"}, "[4]": {"conditions": "female, Gottingen, minipig, in vivo, Plasma concentration of formoterol, SC5 0.4 μg/kg, combination"}, "[5]": {"conditions": "female, Gottingen, minipig, in vivo, iv, 0.4 ug/kg"}, "[6]": {"conditions": "female, Gottingen, minipig, in vivo, iv, 0.4 ug/kg, formoterol 0.4 μg/kg IV in combination with budesonide, female 2-0623"}, "[7]": {"conditions": "female, Gottingen, minipig, in vivo, iv, Plasma concentration of formoterol, IV 0.4 μg/kg, combination"}}, "data": [{"compound": "COc1ccc(CC(C)NCC(O)c2ccc(O)c(NC=O)c2)cc1", "note": "(centres unmarked) [Formoterol, formoterol]", "values": [{"measurement": "Plasma concentration of formoterol", "setting": "IV 0.4 μg/kg, combination, female 2-0623, 24.0 hr", "result": "<LLOQ (LLOQ = 1.00 pg/mL for formoterol)"}, {"measurement": "Plasma concentration of formoterol", "setting": "IV 0.4 μg/kg, combination, male 1-0771, 0 hr", "result": "<LLOQ (LLOQ = 1.00 pg/mL for formoterol)"}, {"measurement": "Plasma concentration of formoterol", "setting": "IV 0.4 μg/kg, combination, male 1-0771, 24.0 hr", "result": "<LLOQ (LLOQ = 1.00 pg/mL for formoterol)"}, {"measurement": "Plasma concentration of formoterol", "setting": "SC1 0.4 μg/kg, combination, female 2-0623, 0 hr", "result": "<LLOQ (LLOQ = 1.00 pg/mL for formoterol)"}, {"measurement": "Plasma concentration of formoterol", "setting": "SC1 0.4 μg/kg, combination, female 2-0623, 24.0 hr", "result": "<LLOQ (LLOQ = 1.00 pg/mL for formoterol)"}, {"measurement": "Plasma concentration of formoterol", "setting": "SC5 0.4 μg/kg, combination, female 2-0623, 0 hr", "result": "<LLOQ (LLOQ = 1.00 pg/mL for formoterol)"}, {"measurement": "Plasma concentration of formoterol", "setting": "SC5 0.4 μg/kg, combination, male 1-0771, 0 hr", "result": "<LLOQ (LLOQ = 1.00 pg/mL for formoterol)"}, {"measurement": "AUC(0-inf)", "setting": "[1]", "result": 0.378, "unit": "ng·h/mL"}, {"measurement": "AUC(0-inf)", "setting": "[2]", "result": 0.577, "unit": "ng·h/mL"}, {"measurement": "Cmax", "setting": "[1]", "result": 0.284, "unit": "ng/mL"}, {"measurement": "Cmax", "setting": "[2]", "result": 0.256, "unit": "ng/mL"}, {"measurement": "bioavailability", "setting": "[1]", "result": 115, "unit": "%"}, {"measurement": "bioavailability", "setting": "[2]", "result": 176, "unit": "%"}, {"measurement": "concentration at 0.0333 hr", "setting": "[3]", "result": 0.169, "unit": "ng/mL"}, {"measurement": "concentration at 0.0833 hr", "setting": "[3]", "result": 0.284, "unit": "ng/mL"}, {"measurement": "concentration at 0.167 hr", "setting": "[3]", "result": 0.237, "unit": "ng/mL"}, {"measurement": "concentration at 0.333 hr", "setting": "[3]", "result": 0.156, "unit": "ng/mL"}, {"measurement": "concentration at 0.5 hr", "setting": "[3]", "result": 0.127, "unit": "ng/mL"}, {"measurement": "concentration at 0.75 hr", "setting": "[3]", "result": 0.0789, "unit": "ng/mL"}, {"measurement": "concentration at 1 hr", "setting": "[3]", "result": 0.0678, "unit": "ng/mL"}, {"measurement": "concentration at 2 hr", "setting": "[3]", "result": 0.0512, "unit": "ng/mL"}, {"measurement": "concentration at 4 hr", "setting": "[3]", "result": 0.0285, "unit": "ng/mL"}, {"measurement": "concentration at 8 hr", "setting": "[3]", "result": 0.00858, "unit": "ng/mL"}, {"measurement": "concentration at 0.0333 hr", "setting": "[4]", "result": 0.0946, "unit": "ng/mL"}, {"measurement": "concentration at 0.0833 hr", "setting": "[4]", "result": 0.256, "unit": "ng/mL"}, {"measurement": "concentration at 0.167 hr", "setting": "[4]", "result": 0.178, "unit": "ng/mL"}, {"measurement": "concentration at 0.333 hr", "setting": "[4]", "result": 0.131, "unit": "ng/mL"}, {"measurement": "concentration at 0.5 hr", "setting": "[4]", "result": 0.1, "unit": "ng/mL"}, {"measurement": "concentration at 0.75 hr", "setting": "[4]", "result": 0.0826, "unit": "ng/mL"}, {"measurement": "concentration at 1 hr", "setting": "[4]", "result": 0.0628, "unit": "ng/mL"}, {"measurement": "concentration at 2 hr", "setting": "[4]", "result": 0.0444, "unit": "ng/mL"}, {"measurement": "concentration at 4 hr", "setting": "[4]", "result": 0.026, "unit": "ng/mL"}, {"measurement": "concentration at 8 hr", "setting": "[4]", "result": 0.0103, "unit": "ng/mL"}, {"measurement": "concentration at 24 hr", "setting": "female, Gottingen, minipig, in vivo, Plasma concentration of formoterol, SC5 0.4 μg/kg, combination, female 2-0623, 24.0 hr", "result": 0.00695, "unit": "ng/mL"}, {"measurement": "Tmax", "setting": "[1]", "result": 5, "unit": "min"}, {"measurement": "Tmax", "setting": "[2]", "result": 5, "unit": "min"}, {"measurement": "Vd", "setting": "[5]", "result": 3.17, "unit": "L/kg"}, {"measurement": "clearance", "setting": "[5]", "result": 20.3, "unit": "mL/min/kg"}, {"measurement": "AUC(0-inf)", "setting": "[6]", "result": 0.328, "unit": "ng·h/mL"}, {"measurement": "Cmax", "setting": "[6]", "result": 0.9, "unit": "ng/mL"}, {"measurement": "Tmax", "setting": "[6]", "result": 2, "unit": "min"}, {"measurement": "half-life", "setting": "female, Gottingen, minipig, in vivo, iv, 0.4 ug/kg, t1/2, formoterol 0.4 μg/kg IV in combination with budesonide, female 2-0623", "result": 2.86, "unit": "h"}, {"measurement": "concentration at 0 hr", "setting": "female, Gottingen, minipig, in vivo, iv, Plasma concentration of formoterol, IV 0.4 μg/kg, combination, female 2-0623, 0 hr", "result": 0.00353, "unit": "ng/mL"}, {"measurement": "concentration at 0.0333 hr", "setting": "[7]", "result": 0.9, "unit": "ng/mL"}, {"measurement": "concentration at 0.0833 hr", "setting": "[7]", "result": 0.204, "unit": "ng/mL"}, {"measurement": "concentration at 0.167 hr", "setting": "[7]", "result": 0.11, "unit": "ng/mL"}, {"measurement": "concentration at 0.333 hr", "setting": "[7]", "result": 0.0735, "unit": "ng/mL"}, {"measurement": "concentration at 0.5 hr", "setting": "[7]", "result": 0.0984, "unit": "ng/mL"}, {"measurement": "concentration at 0.75 hr", "setting": "[7]", "result": 0.0614, "unit": "ng/mL"}, {"measurement": "concentration at 1 hr", "setting": "[7]", "result": 0.0454, "unit": "ng/mL"}, {"measurement": "concentration at 2 hr", "setting": "[7]", "result": 0.0313, "unit": "ng/mL"}, {"measurement": "concentration at 4 hr", "setting": "[7]", "result": 0.0184, "unit": "ng/mL"}, {"measurement": "concentration at 8 hr", "setting": "[7]", "result": 0.00726, "unit": "ng/mL"}, {"measurement": "half-life", "setting": "female, Gottingen, minipig, in vivo, t1/2, formoterol 0.4 μg/kg SC1 single site, combination, female 2-0623", "result": 2.33, "unit": "h"}, {"measurement": "half-life", "setting": "female, Gottingen, minipig, in vivo, t1/2, formoterol 0.4 μg/kg SC5 (5 sites), combination, female 2-0623", "result": 12.8, "unit": "h"}, {"measurement": "tlast", "setting": "formoterol 0.4 μg/kg IV in combination with budesonide, female 2-0623", "result": 8.00, "unit": "h"}]}]}
